{"source": "patent US20030114403A1", "about": "“Method for treatment of cancers and antineoplastic pharmaceutical formulations” (CANADA Inc., priority 2001, published 2003)", "key": {"Ehrlich ascites": {"test_system": "Ehrlich ascites", "assay": "Ehrlich ascites in A2G mice, single intraperitoneal treatment", "conditions": "for toxic side effects: animals followed up to one month", "experimental": "Normal A2G mice were transplanted 24 hours prior to treatment with 1,000,000 Ehrlich ascites cells. Treatment procedures consisted of a single intraperitoneal injection of malachite green 4/mg/kg or brilliant green 2 mg/kg, with or without 0.7% levorotatory lactic acid.\nA lot of 50 A2G mice with a bodyweight of approximately 25 g each were infected with Ehrlich ascites 48 hours prior to treatment. Treatment consisted of one intraperitoneal injection of 1.0 cm^3 brilliant green 1:20,000 solution (2 mg per kilogram) or 1.0 cm^3 of malachite green 1:10,000 (4 mg per kilogram), with 0.7% levorotatory lactic acid."}, "Ehrlich ascites cells": {"test_system": "Ehrlich ascites cells", "assay": "Transmission electron microscopy of Ehrlich ascites cells from intraperitoneal liquid after treatment", "format": "cell-based, A2G mice"}, "[1]": {"conditions": "single intraperitoneal injection, malachite green 4/mg/kg or brilliant green 2 mg/kg, with or without 0.7% levorotatory lactic acid"}}, "data": [{"compound": "CCN(CC)c1ccc(C(=C2C=CC(=[N+](CC)CC)C=C2)c2ccccc2)cc1", "note": "[brilliant green]", "values": [{"measurement": "toxic side effects", "setting": "Ehrlich ascites; [1]", "value": "no obvious toxic side effects were observed"}]}, {"compound": "CN(C)c1ccc(C(=C2C=CC(=[N+](C)C)C=C2)c2ccccc2)cc1", "note": "[malachite green]", "values": [{"measurement": "resolution of Ehrlich ascites", "setting": "Ehrlich ascites; [1]", "value": "ability to resolve Ehrlich ascites"}, {"measurement": "toxic side effects", "setting": "Ehrlich ascites; [1]", "value": "no obvious toxic side effects were observed"}, {"measurement": "effect of blocking malignancies", "setting": "Ehrlich ascites; with lactic acid as specific vector and metabolite, in vitro and in vivo", "value": "irreversible effect of blocking malignancies both in vitro and in vivo"}, {"measurement": "inactivation of malignant cells (electron microscope study of intraperitoneal liquid samples)", "setting": "Ehrlich ascites cells; one i.p. injection of brilliant green 1:20,000 (2 mg per kilogram) or malachite green 1:10,000 (4 mg per kilogram) with 0.7% levorotatory lactic acid, samples at different times", "value": "complete inactivation of the malignant cells"}, {"measurement": "lipid droplet synthesis (TEM)", "setting": "Ehrlich ascites cells; twenty-four hours after the treatment", "value": "slowed down"}, {"measurement": "morphology (TEM) of ascites cells in peritoneal fluid", "setting": "Ehrlich ascites cells; two weeks post treatment", "value": "characteristic cytostatic morphology consistent with interruption of cell cycling"}]}]}
